Laboratory results: patent US20160200757A1, “TYLOSIN A ANALOGS AND DERIVATIVES” (AbbVie Inc., priority 2014, published 2016)
Converted amounts (≈) assume the structure as drawn.

Assays:
[1] = Pharmacokinetic study, oral dosing in Sprague-Dawley rats (AUC/D); format: in vivo; settings: dosed orally in rats; dose-normalized plasma AUC
Method: (§1) Compounds were dosed orally to Sprague-Dawley rats, using appropriate formulations and doses. Serial blood samples were collected at selected time points post-dosing. Plasma was separated from the blood by centrifugation. 25 μL of plasma (sample, standard or QC) was combined with 25 μL of internal standard and 250 μL acetonitrile. Following vortexing to mix, the plates were centrifuged to separate the precipitated proteins. A 50 μL aliquot of the supernatant was transferred to a clean 96-well plate and diluted with 100 μL 0.1% formic acid. Stock standards were prepared in DMSO, with intermediate dilutions in acetonitrile:water (50:50, by volume). Samples were analyzed by LC-MS. The drug level curves were used to calculate dose-normalized area under the curve (AUC/D) data, which are reported as μg-hr/mL per mg/kg.

[2] = Pharmacokinetic study, oral dosing in BALB/c mice (AUC/D); format: in vivo; settings: dosed orally in mice; when Compound 43 was dosed, levels of Compound 19 were measured; when Compound 46 was dosed, levels of Compound 10
Method: as §1, with “Alternatively, compounds” for “Compounds”, “BALB/c mice,” for “Sprague-Dawley rats,”
When Compound 43 was dosed, levels of Compound 19 were measured; when Compound 46 was dosed, levels of Compound 10 were measured. Thus, Compounds 43 and 46 serve as prodrugs for Compounds 19 and 10, respectively. Administration of 4′″-modified prodrugs provided greater exposure to the 4′″ deacylated metabolite as compared to administration of the corresponding metabolite itself. […]

E. faecalis ATCC29212 = assay: Broth microdilution MIC; format: cell-based; settings: Enterococcus faecalis, 35° C., approximately 20 hours
Method: (§2) Minimum inhibitory concentration (“MIC”) values for the isolates were determined using a broth microdilution method. The wells of a standard 96-well microdilution plate (Costar 3795, Corning Inc., Corning, N.Y.) were filled with 150 μL of an appropriate diluent. For test compounds supplied as powders, Column 1 was filled with 300 μL of either the investigational or comparator agents at the appropriate stock concentration (40× the highest test concentration). A Biomek 200 was used to make eleven 2-fold serial dilutions to create a “mother plate”. For compounds supplied as DMSO stocks, compounds were diluted to 50× the highest test concentrations and 2-fold serial dilutions were made manually.
(§3) For compounds supplied as solids, “daughter plates” were loaded with 185 μL using the Multidrop 384. These daughter plates were prepared on the Biomek F/X instrument which transferred 5 μL of drug solution from each well of the mother plate to each corresponding well of each daughter plate in a single step. For compounds supplied as DMSO stock, daughter plates were filled with 90 μL of media and 2 μL of drug solution from each well of the mother plate was added to each corresponding well manually.
(§4) A suspension of standardized inoculum for each organism, equivalent to a 0.5 McFarland standard, was diluted 1:10 in Mueller Hinton II broth resulting in a final concentration of approximately 5×10^5 CFU/mL during testing. Inocula were transferred to compartments of sterile reservoirs divided by length. The Biomek 2000 was used to inoculate all plates. Daughter plates were placed on the Biomek 2000 in reverse orientation so that plates were inoculated from low to high drug concentration. The Biomek 2000 delivered 10 μL of standardized inoculum into each well of the appropriate daughter plate. The final concentration of DMSO (if used as a solvent) in the test wells was 2.5%.
(§5) Plates were stacked 3 high, covered with a lid on the top plate, placed into plastic bags, and incubated at 35° C. for approximately 20 hours. […] MIC values were read where visible growth of the organism was inhibited.

H. influenza ATCC49247 = assay: Broth microdilution MIC; format: cell-based; settings: Haemophilus influenzae, 35° C., approximately 20 hours
Method: as §2, §3, §4, §5

S. aureus ATCC29213 = assay: Broth microdilution MIC; format: cell-based; settings: Staphylococcus aureus, 35° C., approximately 20 hours
Method: as §2, §3, §4, §5

S. epidermis ATCC49134 = assay: Broth microdilution MIC; format: cell-based; settings: Staphylococcus epidermidis, 35° C., approximately 20 hours
Method: as §2, §3, §4, §5

S. pneumonia ATCC49619 = assay: Broth microdilution MIC; format: cell-based; settings: Streptococcus pneumoniae, 35° C., approximately 20 hours
Method: as §2, §3, §4, §5

[3] = system: Staphylococcus aureus ATCC 25923; assay: Agar disc diffusion assay (zone of inhibition); format: cell-based; settings: 10 μg on 7 mm paper disc (antibacterial standard)
Method: Antibacterial tests were performed on a series of tylosin A derivatives via the ‘agar disc diffusion’ assay. This assay is employed to determine the sensitivity of pathogens to chemical entities under investigation and is a standardized procedure outlined in 1961 by the World Health Organization.
Bacteria tested were a standard gram positive organism; Staphylococcus aureus ATCC 25923 (available from the American Type Culture Collection).
Colonies of bacteria are dispensed into liquid Mueller-Hinton II broth (available from Becton, Dickinson and Company), agitated and then streaked onto prepared Mueller-Hinton agar plates. Bacteria were allowed to grow for 16 hours at 37 degrees C. A sterile loupe was used to select 4-5 isolates from the cultures thus grown, and dispensed into Mueller-Hinton broth. […]
To obtain a dose response curve against Staphylococcus aureus, 20 μL (20 nanomoles) of each tylosin A derivative to be tested as obtained from the company compound repository at 1 mM stock solution in DMSO was dispensed onto a 7 mm blank paper disc (available from BBL, Le Pont du Claire, France). […] At this time, the ‘zone of inhibition’ around each 7 mm paper disc (inclusive of the disc itself) was measured and recorded in Table 6 below.

[4] = Parent vs. metabolite levels in plasma after oral dosing in rats; format: in vivo; settings: oral 20 mg/kg, based on AUC(0-∞), 10 plasma samples over 12 hours, vs 4″-debenzylated metabolite
Method: Pharmacokinetic properties of compounds having three non-hydrogen substituents at the alpha-position of the ester (i.e., a tri-substituted ester) were further examined. A compound having a 4″-tri-substituted ester moiety (Compound 14) was compared to a di-substituted control compound. The compounds were dosed orally, 20 mg/kg, in rats.
Pharmacokinetic properties of compounds having a 4″-benzyl moiety were further examined. A compound having a 4″-halobenzyl moiety (Compound 10) was compared to a compound having an unsubstituted 4″-benzyl moiety. The compounds were dosed orally, 20 mg/kg, in rats.

Molecule	AUC/D [1]	AUC/D [2]	MIC (E. faecalis ATCC29212)	MIC (H. influenza ATCC49247)	MIC (S. aureus ATCC29213)	MIC (S. epidermis ATCC49134)	MIC (S. pneumonia ATCC49619)	Zone of inhibition [3]	Parent % [4]
CC[C@H]1OC(=O)C[C@@H](O)[C@H](C)[C@@H](O[C@@H]2O[C@H](C)[C@@H](O[C@H]3C[C@@](C)(O)[C@@H](O)[C@H](C)O3)[C@H](N(C)C)[C@H]2O)[C@@H](CC=O)C[C@@H](C)C(=O)/C=C/C(C)=C/[C@@H]1CO[C@@H]1O[C@H](C)[C@@H](O)[C@@H](OC)[C@H]1OC [Tylosin A, 2-((4R,5S,6S,7R,9R,11E,13E,15R,16R)-6-(((2R,3R,4R,5S,6R)-5-(((2S,4R,5S,6S)-4,5-dihydroxy-4,6-dimethyltetrahydro-2H-pyran-2-yl)oxy)-4-(dimethylamino)-3-hydroxy-6-methyltetrahydro-2H-pyran-2-yl)oxy)-16-ethyl-4-hydroxy-15-((((2R,3R,4R,5R,6R)-5-hydroxy-3,4-dimethoxy-6-methyltetrahydro-2H-pyran-2-yl)oxy)methyl)-5,9,13-trimethyl-2,10-dioxooxacyclohexadeca-11,13-dien-7-yl)acetaldehyde]	0.0097 μg-hr/mL per mg/kg	0.0054 μg-hr/mL per mg/kg	1 µg/mL (≈ 1.09 µM)	16 µg/mL (≈ 17.5 µM)	2 µg/mL (≈ 2.18 µM)	1 µg/mL (≈ 1.09 µM)	0.25 µg/mL (≈ 0.273 µM)	–	–
Gentamicin	–	–	–	–	–	–	–	23 mm	–
CC[C@H]1OC(=O)C[C@@H](O)[C@H](C)[C@@H](O[C@@H]2O[C@H](C)[C@@H](O[C@H]3C[C@@](C)(O)[C@@H](OCc4ccccc4)[C@H](C)O3)[C@H](N(C)C)[C@H]2O)[C@@H](CC=O)C[C@@H](C)C(=O)/C=C/C(C)=C/[C@@H]1CO[C@@H]1O[C@H](C)[C@@H](O)[C@@H](OC)[C@H]1OC [Compound G, Tylosin A 4″ O-Benzyl]	0.05 μg-hr/mL per mg/kg	–	2 µg/mL (≈ 1.99 µM)	16 µg/mL (≈ 15.9 µM)	4 µg/mL (≈ 3.98 µM)	2 µg/mL (≈ 1.99 µM)	0.25 µg/mL (≈ 0.248 µM)	–	95%
